Assay results published in the supplement of paper PMC10307832.

Legend:
Assay in all cases: relative viability (nuclei count vs DMSO), 5 days (fraction); higher = more cells survive
[1] = compound: C=CC(=O)N1CCC[C@@H](n2nc(-c3ccc(Oc4ccccc4)cc3)c3c(N)ncnc32)C1 [Ibrutinib] + Cc1nc(Nc2ncc(C(=O)Nc3c(C)cccc3Cl)s2)cc(N2CCN(CCO)CC2)n1 [Dasatinib] (partner 0.075 µM)
Summary of the method: (§1)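 Lung cancer cell lines in 1536-well plates were dosed by pin tool the day after seeding, either with one drug alone or with a fixed anchor-drug dose plus five library-drug doses (not always all listed) in √10 steps. After 5 days, cells were fixed and their nuclei stained in one step (final 0.05% Triton X-100, 1% formaldehyde, 1 ug/ml Hoechst), then counted on 4× images. Relative viability is the nuclei count in treated wells divided by that in vehicle wells. Values are medians of duplicate plates.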

[2] = compound: C=CC(=O)Nc1cc(-n2c(=O)ccc3cnc4ccc(-c5ccc(NS(C)(=O)=O)cc5)cc4c32)ccc1C [BMX-IN-1] + Cc1cc(Nc2cc(N3CCN(C)CC3)nc(Sc3ccc(NC(=O)C4CC4)cc3)n2)n[nH]1 [Tozasertib] (partner 0.1 µM)
Summary of the method: as §1

[3] = compound: C=CCc1cccc(/C=N/NC(=O)CN2CCN(Cc3ccccc3)CC2)c1O [PAC-1] + CS(=O)(=O)CCNCc1ccc(-c2ccc3ncnc(Nc4ccc(OCc5cccc(F)c5)c(Cl)c4)c3c2)o1 [Lapatinib] (partner 2 µM)
Summary of the method: as §1

[4] = compound: C=CCc1cccc(/C=N/NC(=O)CN2CCN(Cc3ccccc3)CC2)c1O [PAC-1] + C[C@@H](Oc1cc(-c2cnn(C3CCNCC3)c2)cnc1N)c1c(Cl)ccc(F)c1Cl [Crizotinib] (partner 1 µM)
Summary of the method: as §1

Row | Cell Line | relative viability ([1]; first compound 0.005 µM) | relative viability ([1]; first compound 0.01581 µM) | relative viability ([1]; first compound 0.05 µM) | relative viability ([1]; first compound 0.1581 µM) | relative viability ([1]; first compound 0.5 µM) | relative viability ([2]; first compound 0.02 µM) | relative viability ([2]; first compound 0.2 µM) | relative viability ([2]; first compound 0.6325 µM) | relative viability ([2]; first compound 2 µM) | relative viability ([3]; first compound 0.02 µM) | relative viability ([3]; first compound 0.06325 µM) | relative viability ([3]; first compound 0.2 µM) | relative viability ([3]; first compound 2 µM) | relative viability ([4]; first compound 0.02 µM) | relative viability ([4]; first compound 0.06325 µM) | relative viability ([4]; first compound 0.2 µM) | relative viability ([4]; first compound 2 µM)
1 | SK-LU-1 | 0.179 | 0.162 | 0.17 | 0.183 | 0.162 | 0.321 | 0.344 | 0.281 | 0.254 | 0.601 | 0.942 | 0.67 | 0.867 | 0.788 | 0.856 | 0.93 | 0.794
2 | SW 1573 | 0.647 | 0.494 | 0.477 | 0.588 | 0.514 | 0.115 | 0.175 | 0.185 | 0.177 | 1.05 | 1.16 | 1 | 1.09 | 0.786 | 0.658 | 0.701 | 0.839
3 | UMC-11 | 0.417 | 0.411 | 0.485 | 0.548 | 0.486 | 0.194 | 0.197 | 0.244 | 0.196 | 0.994 | 0.987 | 0.978 | 1.07 | 0.62 | 0.606 | 0.546 | 0.666
